In US8962656B2, “CCR2 antagonists” (Boehringer Ingelheim International GmbH, priority 2010, dated 2015):

Target: T1, CCR2 (Homo sapiens, UniProt P41597)
T1 construct: Membranes were prepared from THP-1 cells; endogenous in cells; host or cells: THP-1 (human acute monocytic leukaemia cells), membrane preparation
Assay: CCR2 receptor membrane binding assay ([125I]MCP-1, THP-1 membranes, SPA beads)
Conditions: THP-1 cell membranes, [125I]MCP-1 displacement, bound radioactivity after 8 h; read-out: hKi
Description: The above exemplary substances have been tested for binding to CCR2 using a binding assay as outlined herein below:
THP-1 cells (human acute monocytic leukaemia cells) were cultured under standardized conditions at 37° C. and 5% CO2 in a humidified incubator. THP-1 cells were cultivated in RPMI 1640 medium (Gibco 21875) containing 1% MEM-NEAA (Gibco 11140) 2 mM L-glutamine, 1.5 g/L sodium bicarbonate, 4.5 g/L glucose, 10 mM HEPES and 1.0 mM sodium pyruvate, 90%; 10% fetal calf serum (FCS Gibco 10500-064). Membranes were prepared from THP-1 cells. THP-1 cells were centrifuged at 300×g at 4° C. for 10 min. The cell pellet was resuspendet in Phosphate Buffer Saline (PBS, including 10 μM Pefabloc and a protease inhibitor mix ‘complete’, Boehringer Mannheim (1 tablet/50 ml)), to a concentration of […]. The membrane preparation was performed by disrupting the cells by nitrogen […] (at 50 bar, for 1 h) in a “Nitrogen Bombe” (Parr Instrument). Cell debris was removed by centrifugation (800×g at 4° C., 1 min). The supernatant was centrifuged at 80000×g, 4° C. for 30 min to sediment the cell membranes. Usually 50 mg of protein (Bradford assay) were yielded from 1×10E9 cells. The membranes were resuspendet in 25 mM HEPES, 25 mM MgCl2, 1 mM CaCl2, 10% Glycerine for storage in aliquots at −80° C. in 25 mM HEPES, 25 mM MgCl2, 1 mM CaCl2, 10% Glycerine and stored at −80° C.
Perkin Elmer NEX 332 Jod 125 MCP-1, Stock: 2200 Ci/mmol solved in 2000 μl assay buffer, stored at −20° C. THP-1 membrane were adjusted with 25 mM HEPES, pH 7.2; 5 mM MgCl2; 0.5 mM CaCl2; 0.2% BSA assay buffer to a concentration of 2.5 μg/15 Amersham Biosciences PVT-WGA Beads (RPNQ0001) were adjusted with assay buffer to a concentration of 0.24 mg/30 μl. For preparation of the membrane-bead-suspension membranes and beads were incubated for 30 min at RT under rotation (60 rpm) with a ratio of 1:2. Test compounds dissolved in 100% DMSO to a concentration of 10 mM and are further diluted with 100% DMSO to 1 mM. All additional compound dilutions were obtained with assay buffer, final 1% DMSO. Compounds, membrane-bead-suspension and [125I]MCP-1 (ca. 25000 cpm/10 μl) were incubated. Bound radioactivity was determined by scintillation counter after 8 h. Determination of affinity of test compounds (dissociation constant hKi) is calculated by iterative fitting of experimental data using the “easy sys” program, which is based on law of mass action (Schittkowski K. (1994), Numerische Mathematik, Vol. 68, 129-142).

T1 sequence (P41597 whole entry): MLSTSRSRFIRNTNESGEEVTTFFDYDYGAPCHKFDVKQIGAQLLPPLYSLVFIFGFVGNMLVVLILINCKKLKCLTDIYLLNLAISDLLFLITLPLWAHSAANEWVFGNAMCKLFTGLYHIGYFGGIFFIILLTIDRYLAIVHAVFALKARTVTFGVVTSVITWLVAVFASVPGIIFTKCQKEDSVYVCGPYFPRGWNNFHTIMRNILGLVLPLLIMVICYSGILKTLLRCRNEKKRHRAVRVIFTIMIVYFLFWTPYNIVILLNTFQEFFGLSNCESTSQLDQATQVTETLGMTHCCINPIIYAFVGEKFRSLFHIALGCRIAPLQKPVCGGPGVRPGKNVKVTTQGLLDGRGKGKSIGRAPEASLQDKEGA

Ki	Compound
27 nM	CO[C@@H]1COCC[C@@H]1NC1CCN(C(=O)c2cncc(NC[C@H]3CCC[C@@H](c4ccc(C(F)(F)F)cc4)O3)c2)CC1 [Example 9]
133 nM	CO[C@@H]1COCC[C@@H]1NC1CCN(C(=O)c2cncc(NCc3ccc(Cl)c(F)c3)c2C)CC1 [Example 6c]
18 nM	CO[C@@H]1COCC[C@@H]1NC1CCN(C(=O)c2cncc(Nc3ccc(Cl)c(Cl)c3)c2C)CC1 [Example 6a]
85 nM	CO[C@H]1COCC[C@H]1NC1CCN(C(=O)c2cncc(Nc3ccc(Cl)c(Cl)c3)c2C)CC1 [Example 6b]
107 nM	CO[C@@H]1COCC[C@@H]1NC1CCN(C(=O)c2cncc(NC[C@H]3CCC[C@@H](c4ccc(C)cc4)O3)c2)CC1 [Example 10]
21 nM	CO[C@H]1COCC[C@H]1NC1CCN(C(=O)c2cncc(NC[C@H]3CCC[C@@H](c4ccc(C)cc4)O3)c2C)CC1 [Example 6]
1 nM	CO[C@@H]1COCC[C@@H]1NC1CCN(C(=O)c2cncc(NC[C@H]3CCC[C@@H](c4ccc(OC(F)(F)F)cc4)O3)c2C)CC1 [Example 5]
2 nM	CO[C@H]1COCC[C@H]1NC1CCN(C(=O)c2cncc(NC[C@H]3CCC[C@@H](c4ccc(OC(F)(F)F)cc4)O3)c2C)CC1 [Example 4]
100 nM	O=C(c1cncc(NC[C@H]2CCC[C@@H](c3ccc(C(F)(F)F)cc3)O2)c1)N1CCC(NC2CCOCC2F)CC1 (some centres unmarked) [Example 8]
594 nM	Cc1c(NCc2ccc(C(C)(C)C)cc2)cncc1C(=O)N1CCC(N2CCC(N(C)S(C)(=O)=O)CC2)CC1 [Example 1]
42 nM	Cc1c(NC[C@H]2CCC[C@@H](c3ccccc3)C2)cncc1C(=O)N1CCC(N2CCC(N(C)S(C)(=O)=O)CC2)CC1 [Example 2]
72 nM	CO[C@@H]1COCC[C@@H]1NC1CCN(C(=O)c2cncc(NCc3ccc(C(F)(F)F)c(Cl)c3)c2C)CC1 [Example 6d]
40 nM	CO[C@H]1COCC[C@H]1NC1CCN(C(=O)c2cncc(NC[C@H]3CCC[C@@H](c4ccc(C(F)(F)F)cc4)O3)c2)CC1 [Example 7]
6 nM	CO[C@@H]1COCC[C@@H]1NC1CCN(C(=O)c2cncc(NC[C@H]3CCC[C@@H](c4ccc(C)cc4)O3)c2C)CC1 [Example 3]
